This note sets out measurements from patent US20080139520A1, “Altering cholesterol and fat uptake by novel allosteric inhibitors of pancreatic phospholipase A2” (priority 2006, published 2008).

Each structure is given as a SMILES string.

The target in one assay is T1, WT (wild type) pig PLA2 (Sus scrofa, UniProt P00592).
T1 construct: made in house
Description: PLA2 catalyzed hydrolysis of sonicated DMPC vesicles with added bile salt (pH-stat). The assay is classed as biochemical. The settings on record: DMPC vesicles, pancreatic PLA2. As for the experimental part:
Aqueous dispersion of phospholipid was sonicated in a bath type sonicator. Virtually transparent suspension was annealed for at least 4 hours at room temperature before use. Reaction progress for the PLA2 catalyzed hydrolysis of sonicated DMPC (1 mM) vesicles was measured by pH-stat titration (Radiometer) with 1 mM 2-aminopropanediol in 4 ml reaction buffer containing 5 mM CaCl2 for DMPC (or 0.5 mM for DMPM), 1 mM NaCl, […] atmosphere. Reaction was initiated by adding 0.1 μg enzyme in 1-10 μl solution. The pH stat method was also used for monitoring the rate of hydrolysis of DMPM (0.4 mM) vesicles in the presence of polymyxin [27-29], or of the mixed-micelles of POPC with bile salts in 1:2 ratio [13, 30].
Delay before the onset of the stationary phase of the PLA2 catalyzed reaction progress for the hydrolysis of zwitterionic phospholipids has been extensively characterized. […] The apparent rates in FIG. 3 were obtained from the initial slopes of such reaction progress during which <5% of the total substrate is hydrolyzed.
The CMC of the bile salts used in this study range between 0.8 to 5 mM.

For a further assay, the target named is T2, PLA2 (3W)(WT) (Sus scrofa, UniProt P00592).
T2 construct: made in house
T2 sequence (P00592 23-146): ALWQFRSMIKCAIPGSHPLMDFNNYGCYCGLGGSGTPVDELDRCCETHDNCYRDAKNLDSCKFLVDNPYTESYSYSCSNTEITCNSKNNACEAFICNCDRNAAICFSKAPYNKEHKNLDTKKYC
Description: Bile salt binding by Trp emission, (3W)(WT) PLA2. Details: species or system pig. To be noted: read-out: KEB. As for the experimental part:
(§1) Fluorescence emission spectrum or time course of the intensity change from tryptophan or the resonance energy transfer probe TMA-DPH were measured in the ratio mode on SLM-Aminco AB2 in a 1 cm cuvette [31, 32] in 1.6 ml stirred buffer containing 1 or 2 μM PLA2 in 10 mM Tris, 5 mM CaCl2 and 20 mM NaCl at pH 8.0 and 24° C. The slit-widths were 4 nm with excitation at 280.
(§2) As shown in [45], the binding of decylsulfate to the R site is accompanied by a modest increase in the emission intensity from Trp-3. […] As summarized in Table 2, the value of KEB depends on the position of Trp, although Hill coefficient remains 1. […] Note that KEB for the EB complex of ΔPLA2 is about 7-fold larger than that for PLA2.

Another assay concerns the target PLA2 R6M (Sus scrofa, UniProt P00592, R28M). In words: Bile salt binding by Trp emission, R6M PLA2. Set-up: species or system pig. The settings on record: read-out: KEB. On the procedure: as §1, §2
For the next assay, the target named is PLA2 K10M (Sus scrofa, UniProt P00592, K32M). In words: Bile salt binding by Trp emission, K10M PLA2. Set-up: species or system pig. To be noted: read-out: KEB. On the procedure:
as §1, §2

A further assay deals with PLA2 R6M/K10M (Sus scrofa, UniProt P00592, K32M/R28M). Description: Bile salt binding by Trp emission, R6M/K10M PLA2. Set-up: species or system pig. The settings on record: read-out: KEB. On the procedure: as §1, §2
Chain of PLA2 R6M/K10M (P00592 23-146 R28M/K32M): as the sequence (P00592 23-146) above, with R6M, K10M counted along it
The next assay addresses T3, PLA2 L2W/W3F (Sus scrofa, UniProt P00592, L24W/W25F).
T3 construct: made in house
Description: Bile salt binding by Trp emission, L2W/W3F PLA2. Set-up: species or system pig. The settings on record: read-out: KEB. As for the experimental part: as §1, §2

In a further assay the target is T4, PLA2 R6W/W3F (Sus scrofa, UniProt P00592, R28W/W25F).
T4 construct: made in house
T4 sequence (P00592 23-146 W25F/R28W): as the sequence (P00592 23-146) above, with W3F, R6W counted along it
Description: Bile salt binding by Trp emission, R6W/W3F PLA2. Set-up: species or system pig. To be noted: read-out: KEB. On the procedure: as §1, §2

A further assay has as its target T5, PLA2 K10W/W3F (Sus scrofa, UniProt P00592, K32W/W25F).
T5 construct: made in house
Description: Bile salt binding by Trp emission, K10W/W3F PLA2. Set-up: species or system pig. The settings on record: read-out: KEB. As for the experimental part: as §1, §2

Another assay deals with T6, PLA2 L19W/W3F (Sus scrofa, UniProt P00592, L41W/W25F).
T6 construct: made in house
T6 sequence (P00592 23-146 W25F/L41W): as the sequence (P00592 23-146) above, with W3F, L19W counted along it
In words: Bile salt binding by Trp emission, L19W/W3F PLA2. Details: species or system pig. To be noted: read-out: KEB. On the procedure:
as §1, §2

The target of a further assay is T7, PLA2 M20W/W3F (Sus scrofa, UniProt P00592, M42W/W25F).
T7 construct: made in house
T7 sequence (P00592 23-146 W25F/M42W): as the sequence (P00592 23-146) above, with W3F, M20W counted along it
Description: Bile salt binding by Trp emission, M20W/W3F PLA2. Details: species or system pig. To be noted: read-out: KEB. As for the experimental part: as §1, §2

For another assay, the target named is T8, PLA2 K53W/W3F (Sus scrofa, UniProt P00592, R75W/W25F).
T8 construct: made in house
T8 sequence (P00592 23-146 W25F/R75W): as the sequence (P00592 23-146) above, with W3F, R53W counted along it
In words: Bile salt binding by Trp emission, K53W/W3F PLA2. Details: species or system pig. The settings on record: read-out: KEB. On the procedure:
as §1, §2

The target of a further assay is T9, PLA2 K56W/W3F (Sus scrofa, UniProt P00592, K78W/W25F).
T9 construct: made in house
T9 sequence (P00592 23-146 W25F/K78W): as the sequence (P00592 23-146) above, with W3F, K56W counted along it
In words: Bile salt binding by Trp emission, K56W/W3F PLA2. Set-up: species or system pig. To be noted: read-out: KEB. On the procedure:
as §1, §2

The next assay has as its target T10, PLA2 K87W/W3F (Sus scrofa, UniProt P00592, K109W/W25F).
T10 construct: made in house
Description: Bile salt binding by Trp emission, K87W/W3F PLA2. Set-up: species or system pig. To be noted: read-out: KEB. On the procedure: as §1, §2

T5 sequence (P00592 23-146 W25F/K32W): as the sequence (P00592 23-146) above, with W3F, K10W counted along it
T10 sequence (P00592 23-146 W25F/K109W): as the sequence (P00592 23-146) above, with W3F, K87W counted along it
T3 sequence (P00592 23-146 L24W/W25F): as the sequence (P00592 23-146) above, with L2W, W3F counted along it
T1 sequence (P00592 23-146): as the sequence (P00592 23-146) above
Chain of PLA2 K10M (P00592 whole entry K32M): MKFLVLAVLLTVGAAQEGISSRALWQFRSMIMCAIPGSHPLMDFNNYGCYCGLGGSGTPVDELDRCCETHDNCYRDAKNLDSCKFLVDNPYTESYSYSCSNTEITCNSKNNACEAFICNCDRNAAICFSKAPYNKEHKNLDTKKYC
Chain of PLA2 R6M (P00592 23-146 R28M): as the sequence (P00592 23-146) above, with R6M counted along it

As for `C[C@H](CCC(=O)NCCS(=O)(=O)O)[C@H]1CC[C@H]2[C@@H]3CC[C@@H]4C[C@H](O)CC[C@]4(C)[C@H]3C[C@H](O)[C@]12C` [TDOC, taurodeoxycholate], at WT (wild type) pig PLA2, the “effect of bile salt on the rate of hydrolysis (monophasic/biphasic)” value is recorded as “biphasic effect”. Besides, the Kd on PLA2 (3W)(WT) was 30 µM; at PLA2 R6M, more than 100 µM; on PLA2 K10M it was more than 100 µM; at PLA2 R6M/K10M, 10 µM; at PLA2 L2W/W3F, 20 µM; at PLA2 R6W/W3F, 4 µM. Also, the Kd at PLA2 K10W/W3F was 10 µM; at PLA2 L19W/W3F, 44 µM; at PLA2 M20W/W3F, 2 µM; on PLA2 K53W/W3F, 33 µM; on PLA2 K56W/W3F it was 35 µM; at PLA2 K87W/W3F, 2 µM.
